Values after ≈ are worked out from the molar mass of the structure shown.
Columns and labels:
AECO001 (ATCC25922) = experiment: MIC broth microdilution, AECO001; format: cell-based, E. coli; settings: Escherichia coli, ATCC25922, read-out: MIC AECO001
Method in brief: (§1)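 Incubation: 35° C., ambient air, 18-24 h. Medium: cation-adjusted Mueller-Hinton broth with 2-fold serial dilutions of drug. Inoculum: 3×10^5–7×10^5 CFU/mL final, per CLSI microdilution method.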

[1] = system: AECO063 (ATCC25922 bearing an acrAB mutation); experiment: microbe, parasite or virus in culture; format: cell-based, E. coli; settings: Escherichia coli, ATCC25922, read-out: MIC AECO063
Method in brief: as §1

APAE001 (ATCC27853) = experiment: MIC broth microdilution, APAE001; format: cell-based, P. aeruginosa; settings: Pseudomonas aeruginosa, ATCC27853, read-out: MIC APAE001, APAE001 is ATCC27853
Method in brief: as §1

[2] = system: APAE006 (strain of P. aeruginosa in which all efflux pumps are inactivated); experiment: microbe, parasite or virus in culture; format: cell-based; settings: Pseudomonas aeruginosa, read-out: MIC APAE006, P. aeruginosa, all efflux pumps inactivated
Method in brief: (§2)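 Growth inhibition was scored by CLSI broth microdilution using cation-adjusted Mueller-Hinton broth and a final inoculum between 3×10^5 and 7×10^5 CFU/mL, incubated 18-24 hours at 35° C.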

[3] = system: APAE006 in the presence of 8 micrograms per milliliter of polymyxin B nonapeptide; format: cell-based, P. aeruginosa; settings: in the presence of 8 micrograms per milliliter of polymyxin B nonapeptide
Method in brief: as §2

[4] = system: AABA1060 (clinical isolate of Acinetobacter baumannii); experiment: MIC broth microdilution, AABA1060; format: cell-based; settings: Acinetobacter baumannii, read-out: MIC AABA1060
Method in brief: as §1

[5] = system: ASAU001 (laboratory strain of S. aureus, ATCC29213); experiment: MIC broth microdilution, ASAU001; format: cell-based; settings: Staphylococcus aureus, ATCC29213, read-out: MIC ASAU001
Method in brief: as §1

AECO001 HSA AGP = experiment: MIC broth microdilution, AECO001 HSA AGP; format: cell-based, E. coli; settings: Escherichia coli
Method in brief: as §1

| Structure (SMILES) | MIC (AECO001 (ATCC25922)) [mg/L] | MIC [1] [mg/L] | MIC (APAE001 (ATCC27853)) [mg/L] | MIC [2] [mg/L] | MIC APAE006 + PMBN [3] | MIC [4] [mg/L] | MIC [5] [mg/L] | MIC (AECO001 HSA AGP) [mg/L] |
| --- | --- | --- | --- | --- | --- | --- | --- | --- |
| C[C@@H](N)[C@H](NC(=O)c1ccc(C#CC#Cc2cncn2C)cc1)C(=O)NO [Example 88-1, N-((1S,2R)-2-Amino-1-hydroxycarbamoyl-propyl)-4-[4-(3-methyl-3H-imidazol-4-yl)-buta-1,3-diynyl]-benzamide] | < 2 | < 2 | 2 to 16 (≈ 5.47 to 43.8 µM) | < 2 | A (MIC's of 2.0 μg/mL or less = A) | 16 to 64 (≈ 43.8 to 175 µM) | 16 to 64 (≈ 43.8 to 175 µM) | 2 to 16 (≈ 5.47 to 43.8 µM) |
| O=C(N[C@H](C(=O)NO)c1ccsc1)c1ccc(C#Cc2ccc(CN3CCOCC3)cc2)cc1 [Example 67-8] | < 2 | < 2 | 2 to 16 (≈ 4.21 to 33.6 µM) | < 2 | A (MIC's of 2.0 μg/mL or less = A) | 2 to 16 (≈ 4.21 to 33.6 µM) | > 64 | 2 to 16 (≈ 4.21 to 33.6 µM) |
| CC(C)(O)[C@H](NC(=O)c1ccc(/C=C/C#Cc2ccc(CNC3CC3)cc2)cc1)C(=O)NO [Example 113-5] | < 2 | < 2 | < 2 | < 2 | A (MIC's of 2.0 μg/mL or less = A) | < 2 | 16 to 64 (≈ 35.8 to 143 µM) | < 2 |
| CO[C@H](C)[C@H](NC(=O)c1ccc(/C=C/C#Cc2ccc(CNC3CC3)cc2)cc1)C(=O)NO [Example 113-7] | < 2 | < 2 | 2 to 16 (≈ 4.47 to 35.8 µM) | < 2 | A (MIC's of 2.0 μg/mL or less = A) | 2 to 16 (≈ 4.47 to 35.8 µM) | > 64 | 2 to 16 (≈ 4.47 to 35.8 µM) |
| C[C@@H](N)[C@H](NC(=O)c1ccc(C#Cc2ccc(CNCC3CCCO3)cc2)cc1)C(=O)NO (stereo partly drawn) [Example 118-5] | 2 to 16 (≈ 4.44 to 35.5 µM) | < 2 | < 2 | < 2 | A (MIC's of 2.0 μg/mL or less = A) | 16 to 64 (≈ 35.5 to 142 µM) | > 64 | 2 to 16 (≈ 4.44 to 35.5 µM) |
| O=C(N[C@@H](Cn1cncn1)C(=O)NO)c1ccc(/C=C/C#Cc2ccc(CN3CCOCC3)cc2)cc1 [Example 110-10] | < 2 | < 2 | 2 to 16 (≈ 4 to 32 µM) | < 2 | A (MIC's of 2.0 μg/mL or less = A) | 16 to 64 (≈ 32 to 128 µM) | 16 to 64 (≈ 32 to 128 µM) | 2 to 16 (≈ 4 to 32 µM) |
| C[C@@H](N)[C@H](NC(=O)c1ccc(C#CC#Cc2ccccc2Cl)cc1)C(=O)NO [Example 82-10] | < 2 | < 2 | 2 to 16 (≈ 5.05 to 40.4 µM) | < 2 | A (MIC's of 2.0 μg/mL or less = A) | 2 to 16 (≈ 5.05 to 40.4 µM) | 2 to 16 (≈ 5.05 to 40.4 µM) | 2 to 16 (≈ 5.05 to 40.4 µM) |
| CCOCc1ccc(C#Cc2ccc(C(=O)N[C@H](C(=O)NO)[C@@H](C)N)cc2)cc1 [Example 120-1, N-((1S,2R)-2-Amino-1-hydroxycarbamoyl-propyl)-4-(4-ethoxymethyl-phenylethynyl)-benzamide] | < 2 | < 2 | < 2 | < 2 | A (MIC's of 2.0 μg/mL or less = A) | 2 to 16 (≈ 5.06 to 40.5 µM) | 16 to 64 (≈ 40.5 to 162 µM) | 2 to 16 (≈ 5.06 to 40.5 µM) |
| C[C@@H](N)[C@H](NC(=O)c1ccc(C#C/C=C/c2ccc(CO)cc2)cc1)C(=O)NO [Example 101-3] | < 2 | < 2 | < 2 | < 2 | A (MIC's of 2.0 μg/mL or less = A) | 2 to 16 (≈ 5.08 to 40.7 µM) | 16 to 64 (≈ 40.7 to 163 µM) | 2 to 16 (≈ 5.08 to 40.7 µM) |
| C[C@@H](N)[C@H](NC(=O)c1ccc(C#CC#Cc2ccc(OC(F)(F)F)cc2)cc1)C(=O)NO [Example 82-11] | 2 to 16 (≈ 4.49 to 35.9 µM) | < 2 | 16 to 64 (≈ 35.9 to 144 µM) | 2 to 16 (≈ 4.49 to 35.9 µM) | A (MIC's of 2.0 μg/mL or less = A) | 16 to 64 (≈ 35.9 to 144 µM) | 16 to 64 (≈ 35.9 to 144 µM) | 2 to 16 (≈ 4.49 to 35.9 µM) |
| C[C@@H](N)[C@H](NC(=O)c1ccc(/C=C/C#Cc2cccc(Cl)c2)cc1)C(=O)NO [Example 114-4] | < 2 | < 2 | 2 to 16 (≈ 5.03 to 40.2 µM) | < 2 | A (MIC's of 2.0 μg/mL or less = A) | 2 to 16 (≈ 5.03 to 40.2 µM) | 2 to 16 (≈ 5.03 to 40.2 µM) | 2 to 16 (≈ 5.03 to 40.2 µM) |
| CN(C)CC(=O)NC[C@H](NC(=O)c1ccc(C#C/C=C/c2ccc(CN3CCOCC3)cc2)cc1)C(=O)NO [Example 98-2, N—[(S)-2-(2-dimethylamino-acetylamino)-1-hydroxycarbamoyl-ethyl]-4-[(E)-4-(4-morpholin-4-ylmethyl-phenyl)-but-3-en-1-ynyl]-benzamide] | < 2 | < 2 | 2 to 16 (≈ 3.75 to 30 µM) | < 2 | A (MIC's of 2.0 μg/mL or less = A) | 16 to 64 (≈ 30 to 120 µM) | 16 to 64 (≈ 30 to 120 µM) | 2 to 16 (≈ 3.75 to 30 µM) |
| C[C@@H](N)[C@H](NC(=O)c1ccc(C#CC#Cc2ccccc2)cc1)C(=O)NO [Example 82-4] | < 2 | < 2 | 2 to 16 (≈ 5.53 to 44.3 µM) | < 2 | A (MIC's of 2.0 μg/mL or less = A) | 2 to 16 (≈ 5.53 to 44.3 µM) | 2 to 16 (≈ 5.53 to 44.3 µM) | 2 to 16 (≈ 5.53 to 44.3 µM) |
| NC[C@H](NC(=O)c1ccc(C#C/C=C/c2ccc(CN3CCOCC3)cc2)cc1)C(=O)NO [Example 98-1, N—((S)-2-amino-1-hydroxycarbamoyl-ethyl)-4-[(E)-4-(4-morpholin-4-ylmethyl-phenyl)-but-3-en-1-ynyl]-benzamide] | < 2 | < 2 | < 2 | < 2 | A (MIC's of 2.0 μg/mL or less = A) | 16 to 64 (≈ 35.7 to 143 µM) | 16 to 64 (≈ 35.7 to 143 µM) | < 2 |
| C[C@@H](N)[C@H](NC(=O)c1ccc(C#Cc2ccc(CN(C)Cc3cccnc3)cc2)cc1)C(=O)NO [Example 115-5] | < 2 | < 2 | 2 to 16 (≈ 4.24 to 33.9 µM) | < 2 | A (MIC's of 2.0 μg/mL or less = A) | 2 to 16 (≈ 4.24 to 33.9 µM) | > 64 | 2 to 16 (≈ 4.24 to 33.9 µM) |
| C[C@@H](N)[C@H](NC(=O)c1ccc(C#Cc2ccc(CN3CCOCC3)cc2)cc1)C(=O)O [Example 117-2, (2S,3R)-3-Amino-2-[4-(4-morpholin-4-ylmethyl-phenylethynyl)-benzoylamino]-butyric acid] | > 64 | > 64 | > 64 | > 64 | C (MIC's of greater than 16.0 μg/mL to 64.0 μg/mL = C) | > 64 | > 64 | > 64 |
| C[C@@H](O)[C@H](NC(=O)c1ccc(C#Cc2cccc(OC(F)(F)F)c2)cc1)C(=O)NO [Example 133-11] | < 2 | < 2 | 16 to 64 (≈ 37.9 to 152 µM) | 2 to 16 (≈ 4.74 to 37.9 µM) | A (MIC's of 2.0 μg/mL or less = A) | 16 to 64 (≈ 37.9 to 152 µM) | 16 to 64 (≈ 37.9 to 152 µM) | 16 to 64 (≈ 37.9 to 152 µM) |
| CC(C)(N)C(NC(=O)c1ccc(C#Cc2ccc(CNCC(F)F)cc2)cc1)C(=O)NO (stereo not drawn) [Example 137-7] | < 2 | < 2 | < 2 | < 2 | A (MIC's of 2.0 μg/mL or less = A) | 2 to 16 (≈ 4.5 to 36 µM) | 16 to 64 (≈ 36 to 144 µM) | 2 to 16 (≈ 4.5 to 36 µM) |

Source: patent US9617256B2 (priority 2007, dated 2017)
